By IC50 is commonly meant the midpoint of a concentration-inhibition curve. A low value points to inhibition by little substance.

The values below come from patent US20120004282A1, “RNA Interference Mediated Inhibition of the Intercellular Adhesion Molecule 1 (ICAM-1) Gene Expression Using Short Interfering Nucleic Acid (siNA)” (Merck Sharp & Dohme Corp,, priority 2009, published 2012).

[invAb] = inverted abasic unit; m = 2'-O-methyl; r = 2'-OH (RNA); f = 2'-fluoro

In data set [1] the test system is ICAM-1 mRNA. Briefly: ICAM-1 mRNA knock-down in transfected Calu-1 cells (Taqman RT-PCR). The class given is cell-based, human. The settings on record: for % KD Human: Calu-1 cells, 10 nM siNA, 24 hrs post-transfection, relative to non-targeting control; for % KD Human / % KD ICAM-1 10 nM / % KD at 10 nM / Max % KD in DRC: mean ± S.D.; for IC50: ICAM-1 mRNA knockdown, 12 concentrations 0.083 fM to 30 nM; for IC50 / % KD at 10 nM / Max % KD in DRC: human cells; for % KD ICAM-1 10 nM / % KD at 10 nM / Max % KD in DRC: ICAM-1 mRNA; for % KD ICAM-1 10 nM: three independent experiments; for % KD at 10 nM: three separate experiments; for Max % KD in DRC: dose response 0.083 fM to 30 nM. Background: Quantitative PCR measures a nucleic acid by following its amplification.

The test system of data set [2] is ICAM-1 protein. Briefly: In situ ICAM-1 ELISA for surface ICAM-1 in INF-γ/TNF-α stimulated Calu-1 cells. The class given is cell-based, human. The following applies: relative to UC3. As to the method:
In a 96-well plate, 5,000 Calu-1 cells/well were seeded in 100 uL of complete growth media and incubated overnight at 37 C with 5% CO2. The cells were transfected with siNAs using RNAiMax (Invitrogen, Cat# 13778-150); final concentrations of siRNAs are 10 nM-0.0000097 nM. The amount of RNAiMax in each well is 0.3 uL. The siNAs were incubated for 6 hours. The medium was replaced with 95 uL of fresh complete growth medium and add 5 uL/well of INF-γ/TNF-α at 10 ng/ml final concentration. The cells were incubated for 24, 48, and 72 hours.
In situ ELISA for surface ICAM-1 was performed as follows. The cells were washed ×2 in PBS. The wells were pre-blocked with Super Block buffer (Pierce, Cat # 37535) for 1.5 hours at 37° C. The cells were washed ×3 with PBS. The primary monoclonal antibody (Abcam, clone MEM-111, Cat ab2213) was diluted at 1 in 3000 in Super Block buffer. 50 μl of primary antibody was added per well. The wells were shook gently at RT for 1 hour. The cells were washed ×3 with PBS. The rabbit polyclonal secondary antibody (Abcam, Cat ab6728)was diluted 1:1000 in Super Block buffer. 50 μl secondary antibody were added per well. The mixture was incubated at 37° C. for 1 hour. The cells were washed ×3 with PBS. 50 μl of TMB solution (Sigma, Cat# T-8665) was added per well and incubated in the dark for 10 minutes. 50 μl Stop solution was added. The absorbance was read at 450 nm.
The effects of siNAs on ICAM-1 protein level were compared to each other and to the effect of the universal control using a multiple comparison ANOVA test to obtain a 95% confidence interval.
Various siNAs were also evaluated for their potential to knock-down ICAM-1 protein using an ELISA assay. Six siNAs were tested in an ICAM-1 ELISA assay across a range of concentrations of siNAs. The absorbance of each sample was normalized to the average absorbance obtained from the wells that were not stimulated with INF-γ/TNF-α (n=6). These wells served as a background control (see Table 6).
(In general: ELISA stands for enzyme-linked immunosorbent assay.)

As to “29282-DC: siNA duplex, ICAM-1 target site 2113 (h); sense B cGcAucuGAucuGuAGucA TTB; antisense UGAcuAcAGAucAGAuGcGUU (sense CGCAUCUGAUCUGUAGUCATT; antisense UGACUACAGAUCAGAUGCGUU; sense: DNA at AGT, 2'-fluoro at CU, [invAb] at 5' end, 3' end, backbone not given here; antisense: sugars from the 5' end rrrffmfmmmffmmmfmfmmm, backbone not given here)”, in data set [1], the “% KD Human” value was determined as 95 ± 2%, half-maximal inhibition (IC50) required 0.086 ± 0.047 nM, the “% KD ICAM-1 10 nM” value amounted to 95 ± 2% and the “% KD at 10 nM” value worked out at 95 ± 2%. Moreover, in data set [1], the “Max % KD in DRC” value is 88 ± 4%. Besides, in data set [2], the “ICAM-1 Protein % KD 24 h, 10 nM” value is given as 87%; the “ICAM-1 Protein % KD 48 h, 10 nM” value came out at 64%; the “ICAM-1 Protein % KD 72 h, 10 nM” value is 61%.
For the substance “29284-DC: siNA duplex, ICAM-1 target site 1141 (h); sense B cucAGucAGuGuGAccGcA TTB; antisense UGCGGucAcAcuGAcuGAGUU (sense CUCAGUCAGUGUGACCGCATT; antisense UGCGGUCACACUGACUGAGUU; sense: DNA at AGT, 2'-fluoro at CU, [invAb] at 5' end, 3' end, backbone not given here; antisense: sugars from the 5' end rrrmmffmfmffmmffmmmmm, backbone not given here)”, in data set [1], the “% KD Human” value worked out at 85 ± 1%, the IC50 came out at 0.281 ± 0.233 nM, the “% KD ICAM-1 10 nM” value is listed as 85 ± 1% and the “% KD at 10 nM” value was determined as 85 ± 1%. For the same substance, the “Max % KD in DRC” value in data set [1] came out at 73 ± 4%. Also, in data set [2], the “ICAM-1 Protein % KD 24 h, 10 nM” value was 64%; the “ICAM-1 Protein % KD 48 h, 10 nM” value was found to be 53%; the “ICAM-1 Protein % KD 72 h, 10 nM” value is listed as 44%.
Regarding “29285-DC: siNA duplex, ICAM-1 target site 537 (h); sense B GGAAcAAccGGAAGGuGuA TTB; antisense UACAccuuccGGuuGuuccUU (sense GGAACAACCGGAAGGUGUATT; antisense UACACCUUCCGGUUGUUCCUU; sense: DNA at AGT, 2'-fluoro at CU, [invAb] at 5' end, 3' end, backbone not given here; antisense: sugars from the 5' end rrrmffffffmmffmffffmm, backbone not given here)”, in data set [1], the “% KD Human” value stood at 85 ± 6%, it took 0.394 nM to reach half-maximal inhibition (IC50), the “% KD ICAM-1 10 nM” value is reported as 85 ± 6% and the “% KD at 10 nM” value is 85 ± 6%. Further, in data set [1], the “Max % KD in DRC” value is on record as 70 ± 15%. Further, in data set [2], the “ICAM-1 Protein % KD 24 h, 10 nM” value is 59%; the “ICAM-1 Protein % KD 48 h, 10 nM” value turned out to be 52%; the “ICAM-1 Protein % KD 72 h, 10 nM” value is listed as 36%.
Consider “29286-DC: siNA duplex, ICAM-1 target site 1838 (h); sense B cGGAAGAucAAGAAAuAcA TTB; antisense UGUAuuucuuGAucuuccGUU (sense CGGAAGAUCAAGAAAUACATT; antisense UGUAUUUCUUGAUCUUCCGUU; sense: DNA at AGT, 2'-fluoro at CU, [invAb] at 5' end, 3' end, backbone not given here; antisense: sugars from the 5' end rrrmffffffmmffffffmmm, backbone not given here)”, for which, in data set [1], the “% KD Human” value is given as 89 ± 3%, inhibition was half-maximal at 0.433 ± 0.468 nM (IC50), the “% KD ICAM-1 10 nM” value is reported as 89 ± 3% and the “% KD at 10 nM” value turned out to be 89 ± 3%. The “Max % KD in DRC” value in data set [1] is 81 ± 6%. For the same substance, in data set [2], the “ICAM-1 Protein % KD 24 h, 10 nM” value is 59%; the “ICAM-1 Protein % KD 48 h, 10 nM” value came to 54%; the “ICAM-1 Protein % KD 72 h, 10 nM” value is reported as 43%.
Take “29288-DC: siNA duplex, ICAM-1 target site 2046 (h); sense B cAuuGuccucAGucAGAuA TTB; antisense UAUcuGAcuGAGGAcAAuGUU (sense CAUUGUCCUCAGUCAGAUATT; antisense UAUCUGACUGAGGACAAUGUU; sense: DNA at AGT, 2'-fluoro at CU, [invAb] at 5' end, 3' end, backbone not given here; antisense: sugars from the 5' end rrrffmmffmmmmrfmmfmmm, backbone not given here)”: in data set [1], the “% KD Human” value is 86 ± 3%, half-maximal inhibition (IC50) required 0.215 ± 0.129 nM, the “% KD ICAM-1 10 nM” value was 86 ± 3% and the “% KD at 10 nM” value turned out to be 86 ± 3%. Besides, the “Max % KD in DRC” value in data set [1] is on record as 78 ± 5%. Moreover, in data set [2], the “ICAM-1 Protein % KD 24 h, 10 nM” value came out at 52%; the “ICAM-1 Protein % KD 48 h, 10 nM” value came out at 52%; the “ICAM-1 Protein % KD 72 h, 10 nM” value worked out at 47%.
“48722-DC: siNA duplex, ICAM-1 target site 2240 (h); sense B GAcAuAcAAcuGGGAAAuA TTB; antisense UAUuucccAGuuGuAuGucUU (sense GACAUACAACUGGGAAAUATT; antisense UAUUUCCCAGUUGUAUGUCUU; sense: DNA at AGT, 2'-fluoro at CU, [invAb] at 5' end, 3' end, backbone not given here; antisense: sugars from the 5' end rrrfffffmmffmfmfmffmm, backbone not given here)”: in data set [1], the “% KD Human” value came to 92 ± 1%; the midpoint of inhibition, the IC50, lay at 0.098 ± 0.05 nM; the “% KD ICAM-1 10 nM” value is given as 92 ± 1%; the “% KD at 10 nM” value is recorded as 92 ± 1%. In data set [1], the “Max % KD in DRC” value is listed as 85 ± 1%. In data set [2], the “ICAM-1 Protein % KD 24 h, 10 nM” value was 71%; the “ICAM-1 Protein % KD 48 h, 10 nM” value is reported as 53%; the “ICAM-1 Protein % KD 72 h, 10 nM” value is reported as 43%.
